We go through five compounds from patent publication US12303545B2 (priority 2023, dated 2025).

In brackets after ≈: the same amount, converted by molar mass. Read-outs that look alike come from different tables or passages of the source. Numbered stars: 1 amine (or outer) side, 2 acyl side, 3 side chain; on linkers, the order of the positions; unused ones are H or OH. Bridge positions count the residues as written; N and C are the ends. Ends that are not written are not given here. Peptide text beside a SMILES is read from it. X1 = O=C(NC[*:1])NC[*:2]

The subject of series [1] is BCG bacteria. Description: microbe, parasite or virus in culture. The following applies: Mycobacterium tuberculosis variant bovis BCG.
Series [2] relates to BCG bacteria.
Series [3] has as its system trypsin. Description: in vitro. The following applies: isolated enzyme trypsin, pH 7.4.
Description: (§1) A 4 mg/mL SAH1 solution and a 10 μg/mL trypsin solution each were prepared with PBS (pH 7.4) as a solvent. 250 μL of the trypsin solution was added to 250 μL of the SAH1 solution, and a reaction was conducted in an ice bath. A sample was collected at different time points after the reaction to determine the decomposition of SAH1 by RP-HPLC. RP-HPLC conditions were as follows: A C18 reversed-phase Bio-Rad analytical column was adopted: 250× 4 mm, a pore size: 30 nm, and a particle size: 7 μm. At 0 min to 40 min, linear gradient elution was conducted with 10% to 90% acetonitrile aqueous solutions, with 0.1% TFA (w/v) in both acetonitrile and water. A flow rate was 1.2 mL/min.
(§2) In addition, with the same method as above, the SAH1 aqueous solution was replaced with a 4 mg/mL BMAP-18 aqueous solution to detect the hydrolysis of BMAP-18 by trypsin.
Series [4] can be described thus: in vitro. To be noted: mouse.
Description: A positive control well was set. The positive control well was the same as test wells except that the polypeptide SAH1 aqueous solution was replaced with a DMEM complete medium. After the incubation, 10 μL of a CCK-8 reaction solution (Beijing Solarbio) was added to each well, and the plate was further incubated at 37° C. for 2 h. Finally, the absorbance at 450 nm was detected with a microplate reader (Synersymx, Biotek). An OD value of the positive control well was BO, an OD value of a test well in which an antimicrobial peptide was added was B, and B/BO was called an inhibition rate. […] With a concentration of an antimicrobial peptide as an x-coordinate and an inhibition rate as a y-coordinate, a line chart was plotted, and IC50 was obtained through fitting.
Series [5] has as its system trypsin. The following applies: trypsin 5 μg/mL.
Description: as §1, §2
Series [6] concerns BCG. Format: cell-based, attenuated Mycobacterium bovis. The following applies: treated as in Example 5.

Regarding `CO[C@H]1/C=C/O[C@@]2(C)Oc3c(C)c(O)c4c(O)c(c(/C=N/N5CCN(C)CC5)c(O)c4c3C2=O)NC(=O)/C(C)=C\C=C\[C@H](C)[C@H](O)[C@@H](C)[C@@H](O)[C@@H](C)[C@H](OC(C)=O)[C@@H]1C` [Rifampicin], the MIC in series [1] worked out at 400 µM (≈ 329 µg/mL).
Usually fraction remaining stands for the share of the starting amount still present when the sample was taken. The term IC50 denotes the concentration that inhibits the measured activity by half. Lower therefore signals inhibition by little substance. As to “GRFKRFRKKFKKLFKKLS-OH [BMAP-18, G-R-F-K-R-F-R-K-K-F-K-K-L-F-K-K-L-S-OH]”, in series [2], the MIC stood at 300 µM and the “antibacterial ability relative to SAH1” value is recorded as “one twenty-fourth”. Further, in series [3], the amount remaining at 0.25 h, 2 mg/mL worked out at 17.8% and the amount remaining at 0.5 h, 2 mg/mL came to 0.01%. In series [4], this compound came in with an IC50 at 24 h of 150 µM. Moreover, in series [5] (reaction time 0 min), the “Peak area (RP-HPLC)” value is listed as 254.43 and the Polypeptide residue is on record as 100%. In series [5] (reaction time 15 min), the “Peak area (RP-HPLC)” value is given as 45.20 and the Polypeptide residue is 17.76%. In addition, in series [5] (reaction time 30 min), the “Peak area (RP-HPLC)” value worked out at 0.02 and the Polypeptide residue entry was “almost completely hydrolyzed”.
`CC[C@@H](CO)NCCN[C@@H](CC)CO` [Ethambutol] returned an MIC in series [1] of 800 µM (≈ 163 µg/mL).
As to `CC(C)CC(NC(=O)C(CCCCN)NC(=O)C(CCCCN)NC(=O)C(Cc1ccccc1)NC(=O)C(CC(C)C)NC(=O)C(CCCCN)NC(=O)C(CCCCN)NC(=O)C(Cc1ccccc1)NC(=O)C(CCCCN)NC(=O)C1CSCNC(=O)NCSCC(NC(=O)C(Cc2ccccc2)NC(=O)C(CCCNC(=N)N)NC(=O)CN)C(=O)NC(CCCNC(=N)N)C(=O)NC(Cc2ccccc2)C(=O)NC(CCCNC(=N)N)C(=O)N1)C(=O)NC(CO)C(=O)O` (stereo not drawn) [SAH1] (H-GRFCRFRCKFKKLFKKLS-OH; linker 4-8 via X1; configuration not given here), the MIC in series [2] (BCG bacteria, 37° C. for 7 d, then resazurin 2 d, 7H9 medium) was 12.5 µM (≈ 29.7 µg/mL). Moreover, the “impact on cell membrane and intracellular structure of BCG (TEM)” value in series [6] is “largely missed, resulting in cavities and bacterial death”. Also, the amount remaining at 0.25 h, 2 mg/mL in series [3] is 67.6%. Also, in series [3], the amount remaining at 1 h, 2 mg/mL was found to be 30.2%. In series [4], this compound came in with an IC50 at 24 h of 300 µM. Further, the “Peak area (RP-HPLC)” value in series [5] (reaction time 0 min) is 274.44; in series [5] (reaction time 15 min), 185.49; in series [5] (reaction time 30 min), 125.94; in series [5] (reaction time 60 min) it was 82.92. Besides, the Polypeptide residue is recorded as 100% in series [5] (reaction time 0 min), 67.59% in series [5] (reaction time 15 min), 45.89% in series [5] (reaction time 30 min) and 30.21% in series [5] (reaction time 60 min).
The compound `NNC(=O)c1ccncc1` [Isoniazid] gave an MIC in series [1] of 800 µM (≈ 110 µg/mL).
